US20230233569A1 (Revolution Medicines, Inc., priority 2020, published 2023)
“And” between values parts separate entries of the source, which are not always exact repeats. Identical values can stand only once. Like-named read-outs stand apart in the source and are kept apart here.

Experiments:
NCI-H358 (K-Ras G12C) = assay: CellTiter-Glo cell viability assay, 5-day treatment; type: cell-based; settings: Homo sapiens, NCI-H358, H358, K-Ras G12C; read-out: Additional H358 Cell Viability assay data (K-Ras G12C, IC50)
Procedure: Protocol: CellTiter-Glo® Cell Viability Assay
Note—The following protocol describes a procedure for monitoring cell viability of K-Ras mutant cancer cell lines in response to a compound of the invention. Other RAS isoforms may be employed, though the number of cells to be seeded will vary based on cell line used.
(§1) Test compounds (132.5 nL) were directly dispensed into the assay plates containing cells. […] On day 5, assay plates and their contents were equilibrated to room temperature for approximately 30 minutes. […] Luminescence was measured using the PerkinElmer Enspire. Data were normalized by the following: (Sample signal/Avg. DMSO)*100. The data were fit using a four-parameter logistic fit.
as §1, with “nl)” for “nL)”

KRAS G12C = KRAS G12C (Homo sapiens, UniProt P01116+P62937, G12C); assay: Disruption of BRAF RBD interaction with Ras (FRET / MOA assay, with Cyclophilin A); type: biochemical
Sequence of KRAS G12C (P01116 1-169 isoform P01116-2 G12C): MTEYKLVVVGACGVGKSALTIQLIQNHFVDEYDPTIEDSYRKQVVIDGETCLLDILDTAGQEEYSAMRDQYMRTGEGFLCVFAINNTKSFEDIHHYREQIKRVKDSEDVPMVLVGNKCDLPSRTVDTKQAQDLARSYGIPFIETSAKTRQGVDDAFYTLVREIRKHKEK
Sequence of KRAS G12C (P62937 whole entry): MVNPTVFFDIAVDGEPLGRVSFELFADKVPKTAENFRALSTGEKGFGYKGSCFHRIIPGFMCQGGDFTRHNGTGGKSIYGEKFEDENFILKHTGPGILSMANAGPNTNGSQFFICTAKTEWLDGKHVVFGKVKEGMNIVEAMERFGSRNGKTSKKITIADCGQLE
Description: (§2) This protocol may also be executed substituting other Ras proteins or nucleotides.
(§3) The purpose of this biochemical assay was to measure the ability of test compounds to facilitate ternary complex formation between a nucleotide-loaded K-Ras isoform and Cyclophilin A; the resulting ternary complex disrupts binding to a BRAF^RBD construct, inhibiting K-Ras signaling through a RAF effector. Data is reported as IC50 values.
(§4) Compound was present in plate wells as a 10-point 3-fold dilution series starting at a final concentration of 30 μM. After incubation at 25° C. for 3 hours, a mixture of Anti-His Eu-W1024 and anti-GST allophycocyanin was then added to assay sample wells at final concentrations of 10 nM and 50 nM, respectively, and the reaction incubated for an additional 1.5 hours. […] Compounds that facilitate disruption of a K-Ras:RAF complex were identified as those eliciting a decrease in the TR-FRET ratio relative to DMSO control wells.
as §3, with “BRAF^RBDD” for “BRAF^RBD”

KRAS G12D = KRAS G12D (Homo sapiens, UniProt P01116+P62937, G12D); assay: as above; type: biochemical; settings: read-out: KRAS G12D FRET data, IC50
Sequence of KRAS G12D (P01116 1-169 isoform P01116-2 G12D limits assumed): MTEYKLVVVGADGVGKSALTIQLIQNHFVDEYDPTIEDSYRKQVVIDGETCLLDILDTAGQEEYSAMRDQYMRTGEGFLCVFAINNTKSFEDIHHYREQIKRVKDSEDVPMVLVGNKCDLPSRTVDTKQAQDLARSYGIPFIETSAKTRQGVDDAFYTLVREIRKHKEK
Sequence of KRAS G12D (P62937 whole entry): as the sequence (P62937 whole entry) above
Description: as §2, §3, §4
as §3, with “BRAF^RBDD” for “BRAF^RBD”

KRAS G12S = KRAS G12S (Homo sapiens, UniProt P01116+P62937, G12S); assay: as above; type: biochemical; settings: read-out: KRAS G12S FRET data, IC50
Sequence of KRAS G12S (P01116 1-169 isoform P01116-2 G12S limits assumed): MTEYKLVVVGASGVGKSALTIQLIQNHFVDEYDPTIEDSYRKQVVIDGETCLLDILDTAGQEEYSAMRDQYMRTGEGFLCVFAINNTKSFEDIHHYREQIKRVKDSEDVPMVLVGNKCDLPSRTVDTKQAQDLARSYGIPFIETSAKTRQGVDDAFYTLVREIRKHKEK
Sequence of KRAS G12S (P62937 whole entry): as the sequence (P62937 whole entry) above
Description: as §2, §3, §4
as §3, with “BRAF^RBDD” for “BRAF^RBD”

KRAS G12V = KRAS G12V (Homo sapiens, UniProt P01116+P62937, G12V); assay: as above; type: biochemical; settings: KRAS G12V; read-out: KRAS G12V FRET data IC50
Sequence of KRAS G12V (P01116 1-169 isoform P01116-2 G12V limits assumed): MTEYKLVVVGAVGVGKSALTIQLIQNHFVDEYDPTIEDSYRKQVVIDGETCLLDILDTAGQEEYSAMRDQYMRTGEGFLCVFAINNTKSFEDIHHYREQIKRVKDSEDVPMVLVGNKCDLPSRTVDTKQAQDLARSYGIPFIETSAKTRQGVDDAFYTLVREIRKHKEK
Sequence of KRAS G12V (P62937 whole entry): as the sequence (P62937 whole entry) above
Description: as §2, §3, §4
as §3, with “BRAF^RBDD” for “BRAF^RBD”

KRAS G13C = KRAS G13C (Homo sapiens, UniProt P01116+P62937, G13C); assay: as above; type: biochemical
Sequence of KRAS G13C (P01116 1-169 isoform P01116-2 G13C): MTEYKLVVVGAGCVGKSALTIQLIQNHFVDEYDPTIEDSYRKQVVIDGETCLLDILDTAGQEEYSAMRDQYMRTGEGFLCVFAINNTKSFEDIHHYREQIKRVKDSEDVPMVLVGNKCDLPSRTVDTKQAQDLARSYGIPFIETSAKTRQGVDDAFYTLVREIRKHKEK
Sequence of KRAS G13C (P62937 whole entry): as the sequence (P62937 whole entry) above
Description: as §2, §3, §4
as §3, with “BRAF^RBDD” for “BRAF^RBD”

KRAS G13D = KRAS G13D (Homo sapiens, UniProt P01116+P62937, G13D); assay: as above; type: biochemical
Sequence of KRAS G13D (P01116 1-169 isoform P01116-2 G13D limits assumed): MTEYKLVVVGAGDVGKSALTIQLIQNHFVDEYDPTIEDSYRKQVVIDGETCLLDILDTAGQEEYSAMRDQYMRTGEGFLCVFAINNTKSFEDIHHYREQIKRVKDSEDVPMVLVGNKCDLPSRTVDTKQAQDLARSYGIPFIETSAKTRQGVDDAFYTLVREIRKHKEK
Sequence of KRAS G13D (P62937 whole entry): as the sequence (P62937 whole entry) above
Description: as §2, §3, §4
as §3, with “BRAF^RBDD” for “BRAF^RBD”

KRAS WT = KRAS WT (Homo sapiens, UniProt P01116+P62937); assay: as above; type: biochemical; settings: KRAS WT; read-out: KRAS WT FRET data IC50
Sequence of KRAS WT (P01116 1-169 isoform P01116-2 limits assumed): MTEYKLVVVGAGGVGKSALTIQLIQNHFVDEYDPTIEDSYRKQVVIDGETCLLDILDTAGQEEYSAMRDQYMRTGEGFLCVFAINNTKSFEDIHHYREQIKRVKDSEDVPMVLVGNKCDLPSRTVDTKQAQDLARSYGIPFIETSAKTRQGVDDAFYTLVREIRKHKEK
Sequence of KRAS WT (P62937 whole entry): as the sequence (P62937 whole entry) above
Description: as §2, §3, §4
as §3, with “BRAF^RBDD” for “BRAF^RBD”

NRAS G12C = NRAS G12C (Homo sapiens, UniProt P01111+P62937, G12C); assay: as above; type: biochemical; settings: NRAS G12C; read-out: NRAS G12C FRET data IC50
Sequence of NRAS G12C (P01111 whole entry G12C): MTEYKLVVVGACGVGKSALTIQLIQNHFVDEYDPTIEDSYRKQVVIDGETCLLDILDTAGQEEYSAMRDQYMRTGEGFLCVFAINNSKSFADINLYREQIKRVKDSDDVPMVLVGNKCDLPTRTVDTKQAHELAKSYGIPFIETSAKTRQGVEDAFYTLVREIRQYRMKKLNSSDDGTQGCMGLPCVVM
Sequence of NRAS G12C (P62937 whole entry): as the sequence (P62937 whole entry) above
Description: as §2, §3, §4
as §3, with “BRAF^RBDD” for “BRAF^RBD”

[1] = read-out: KRAS G12C FRET data, IC50
[2] = read-out: KRAS G13C FRET data, IC50
[3] = KRAS G13D, read-out: KRAS G13D FRET data IC50
[4] = KRAS G12C, read-out: KRAS G12C FRET data IC50
[5] = KRAS G13C, read-out: KRAS G13C FRET data IC50

SMILES	IC50 (NCI-H358 (K-Ras G12C)) [µM]	IC50 (KRAS G12D)	IC50 (KRAS G12S)	IC50 (KRAS G12V)	IC50 (KRAS G13C; [2])	IC50 (KRAS G13D; [3])	IC50 (KRAS WT)	IC50 (NRAS G12C)	IC50 (KRAS G12C; [4])	IC50 (KRAS G13C; [5])	IC50 (KRAS G13D; KRAS G13D FRET data IC50, KRAS G13D) [µM]	IC50 (KRAS G12C; [1])
CCn1c(-c2cccnc2[C@H](C)OC)c2c3cc(ccc31)-c1cccc(c1)C[C@H](NC(=O)[C@H](C(C)C)N(C)C(=O)[C@H]1CCN(C(=O)/C=C/CN3CC(OC)C3)C1)C(=O)N1CCC[C@H](N1)C(=O)OCC(C)(C)C2 (atropisomer, axis not shown) [Example A204]	0.01 to 0.1	–	–	–	–	–	–	–	–	–	–	–
CCn1c(-c2cccnc2[C@H](C)OC)c2c3cc(ccc31)-c1cc(C#N)cc(c1)C[C@H](NC(=O)[C@H](C(C)C)N(C)C(C)=O)C(=O)N1CCC[C@H](N1)C(=O)OCC(C)(C)C2 (atropisomer, axis not shown) [Example A430]	–	> 10 µM	> 10 µM	> 10 µM	> 10 µM	> 10 µM	> 10 µM	> 10 µM	–	–	–	> 10 µM
CO[C@@H](C)c1ncccc1-c1c2c3cc(ccc3n1C)-c1csc(n1)C[C@H](NC(=O)[C@H](C(C)C)N(C)C(C)=O)C(=O)N1CCC[C@H](N1)C(=O)OCC(C)(C)C2 (racemic) [Example A103]	–	> 10 µM	> 10 µM	> 10 µM	> 10 µM	> 10 µM	> 10 µM	> 10 µM	–	–	–	> 10 µM
CCn1c(-c2cccnc2[C@H](C)OC)c2c3cc(ccc31)-c1cc(O)cc(c1)C[C@H](NS(=O)(=O)CC1CCC3(CNC3)C1)C(=O)N1CCC[C@H](N1)C(=O)OCC(C)(C)C2 (mixture of isomers) [Example A188]	–	–	> 10 µM	–	–	> 10 µM	> 10 µM	> 10 µM	–	–	–	> 10 µM
CCn1c(-c2cccnc2[C@H](C)OC)c2c3cc(ccc31)-c1cc(O)cc(c1)C[C@H](NS(=O)(=O)N1CCN(C)CC1)C(=O)N1CCC[C@H](N1)C(=O)OCC(C)(C)C2 (racemic) [Example A193]	–	> 10 µM	> 10 µM	> 10 µM	> 10 µM	> 10 µM	> 10 µM	> 10 µM	–	–	–	> 10 µM
CCC(=O)N1CC[C@H](C(=O)N(C)[C@H](C(=O)N[C@H]2Cc3cc(O)cc(c3)-c3ccc4c(c3)c(c(-c3ccccc3CCOC)n4CC)CC(C)(C)COC(=O)[C@@H]3CCCN(N3)C2=O)C(C)C)C1 [Example A34]	–	–	1 to 10 µM	1 to 10 µM	1 to 10 µM	1 to 10 µM	1 to 10 µM	–	–	–	–	0.1 to 1 µM
CCn1c(-c2ccccc2CCOC)c2c3cc(ccc31)-c1cc(O)cc(c1)C[C@H](NC(=O)[C@H](C(C)C)N(C)C(=O)[C@H]1CCN(C(=O)C#CCN(C)C)C1)C(=O)N1CCC[C@H](N1)C(=O)OCC(C)(C)C2 [Example A038]	–	1 to 10 µM	1 to 10 µM and > 10 µM	1 to 10 µM and > 10 µM	–	1 to 10 µM	1 to 10 µM and > 10 µM	< 0.01 µM	0.01 to 0.1 µM and < 0.01 µM	0.1 to 1 µM and 0.01 to 0.1 µM	–	–
CCn1c(-c2cnccc2COC)c2c3cc(ccc31)-c1cc(O)cc(c1)C[C@H](NC(=O)[C@H](C(C)C)N(C)CC(F)(F)F)C(=O)N1CCC[C@H](N1)C(=O)OCC(C)(C)C2 [Example A77]	–	> 10 µM	> 10 µM	> 10 µM	1 to 10 µM	1 to 10 µM	> 10 µM	> 10 µM	–	–	–	1 to 10 µM
CCn1c(-c2cnccc2COC)c2c3cc(ccc31)-c1cc(O)cc(c1)C[C@H](NC(=O)[C@H](C(C)C)N(C)C(=O)OC1CNC1)C(=O)N1CCC[C@H](N1)C(=O)OCC(C)(C)C2 [Example A81]	–	0.1 to 1 µM	0.1 to 1 µM	1 to 10 µM	0.1 to 1 µM	0.1 to 1 µM	0.1 to 1 µM	0.1 to 1 µM	–	–	–	0.1 to 1 µM
CCn1c(-c2cccnc2[C@H](C)OC)c2c3cc(ccc31)-c1cc(O)cc(c1)C[C@H](NC(=O)[C@H](C(C)C)N(C)C(=O)[C@H]1CCN(C(=O)OC(C)C)C1)C(=O)N1CCC[C@H](N1)C(=O)OCC(C)(C)C2 [Example A117]	–	1 to 10 µM and > 10 µM	0.1 to 1 µM and > 10 µM	1 to 10 µM and 0.01 to 0.1 µM	0.1 to 1 µM and > 10 µM	0.1 to 1 µM and > 10 µM	0.1 to 1 µM and > 10 µM	0.1 to 1 µM and 1 to 10 µM	–	–	–	1 to 10 µM and 0.01 to 0.1 µM
CCn1c(-c2cccnc2[C@H](C)OC)c2c3cc(ccc31)-c1cc(O)cc(c1)C[C@H](NS(=O)(=O)c1cn(C)c(C)n1)C(=O)N1CCC[C@H](N1)C(=O)OCC(C)(C)C2 [Example A197]	–	–	–	–	> 10 µM	–	> 10 µM	> 10 µM	–	–	–	–
CCn1c(-c2cccnc2[C@H](C)OC)c2c3cc(ccc31)-c1cc(O)cc(c1)C[C@H](NS(=O)(=O)CC1CC1)C(=O)N1CCC[C@H](N1)C(=O)OCC(C)(C)C2 [Example A200]	–	–	–	–	> 10 µM	–	> 10 µM	> 10 µM	–	–	–	–

More lines, main results first:

IC50 (NCI-H358 (K-Ras G12C)) [µM]	IC50 (KRAS G12D)	IC50 (KRAS G12S)	IC50 (KRAS G12V)	IC50 (KRAS G13C; [2])	IC50 (KRAS G13D; [3])	IC50 (KRAS WT)	IC50 (NRAS G12C)	IC50 (KRAS G12C; [4])	IC50 (KRAS G13C; [5])	IC50 (KRAS G13D; KRAS G13D FRET data IC50, KRAS G13D) [µM]	SMILES	IC50 (KRAS G12C; [1])
0.1 to 1	–	–	–	–	–	–	–	–	–	–	C=CC(=O)N1CC[C@H](C(=O)N(C)[C@H](C(=O)N[C@H]2Cc3cc(O)cc(c3)-c3ccc4c(c3)c(c(-c3cccnc3[C@@H](OC)C3CC3)n4CC)CC(C)(C)COC(=O)[C@@H]3CCCN(N3)C2=O)C(C)C)C1 (atropisomer, axis not shown) [Example A206]	–
–	> 10 µM	1 to 10 µM	0.1 to 1 µM	–	1 to 10 µM	0.1 to 1 µM	0.01 to 0.1 µM	0.01 to 0.1 µM	0.01 to 0.1 µM	–	C=CS(=O)(=O)N1CC[C@H](C(=O)N(C)[C@H](C(=O)N[C@H]2Cc3cc(O)cc(c3)-c3ccc4c(c3)c(c(-c3cccnc3COC)n4CC)CC(C)(C)COC(=O)[C@@H]3CCCN(N3)C2=O)C(C)C)C1 [Example A069]	–
–	> 10 µM	> 10 µM	> 10 µM	–	> 10 µM	> 10 µM	0.1 to 1 µM	0.1 to 1 µM	> 10 µM	–	C=CC(=O)N1CC[C@H](C(=O)N(C)[C@H](C(=O)N[C@H]2Cc3nc(cs3)-c3ccc4c(c3)c(c(-c3cccnc3COC)n4CC)CC(C)(C)COC(=O)[C@@H]3CCCN(N3)C2=O)C(C)C)C1 [Example A094]	–
–	–	–	–	–	–	–	–	–	–	> 10	CCn1c(-c2cccnc2[C@H](C)OC)c2c3cc(ccc31)-c1csc(n1)C[C@H](NC(=O)[C@H](C(C)C)N(C)C(=O)C1COC1)C(=O)N1CCC[C@H](N1)C(=O)OCC(C)(C)C2 [Example A245]	–
–	–	–	–	–	> 10 µM	–	–	–	–	–	CCn1c(-c2cccnc2[C@H](C)OC)c2c3cc(ccc31)-c1csc(n1)C[C@H](NC(=O)[C@H](C(C)C)N(C)C(=O)N1CC3(CCCN(C)C3=O)C1)C(=O)N1CCC[C@H](N1)C(=O)OCC(C)(C)C2 [Example A453]	–
–	–	> 10 µM	> 10 µM	–	> 10 µM	> 10 µM	1 to 10 µM	1 to 10 µM	> 10 µM	–	C=CC(=O)N1CC[C@H](C(=O)N(C)[C@H](C(=O)N[C@H]2Cc3cccc(c3)-c3ccc4c(c3)c(c(-c3cc(CN(C)C)cnc3[C@H](C)OC)n4CC)CC(C)(C)COC(=O)[C@@H]3CCCN(N3)C2=O)C(C)C)C1 [Example A523]	–
–	0.1 to 1 µM	0.01 to 0.1 µM	0.01 to 0.1 µM	–	0.1 to 1 µM	0.1 to 1 µM	–	0.01 to 0.1 µM	0.1 to 1 µM	–	C=CC(=O)N1CC[C@H](C(=O)N(C)[C@H](C(=O)N[C@H]2Cc3cc(O)cc(c3)-c3ccc4c(c3)c(c(-c3cnccc3COC)n4CC)CC(C)(C)COC(=O)[C@@H]3CCCN(N3)C2=O)C(C)C)C1 [Examples A028]	–
